{"source": "patent US11021481B2", "about": "“Substituted isoindolin-1-ones and 2,3-dihydro-1h-pyrrolo[3,4-c]pyridin-1-ones as HPK1 antagonists” (Nimbus Saturn, Inc., priority 2019, dated 2021)", "data": [{"biological_target": "HPK1 (Homo sapiens (Human), UniProt Q92918)", "sequence (Q92918 whole entry)": "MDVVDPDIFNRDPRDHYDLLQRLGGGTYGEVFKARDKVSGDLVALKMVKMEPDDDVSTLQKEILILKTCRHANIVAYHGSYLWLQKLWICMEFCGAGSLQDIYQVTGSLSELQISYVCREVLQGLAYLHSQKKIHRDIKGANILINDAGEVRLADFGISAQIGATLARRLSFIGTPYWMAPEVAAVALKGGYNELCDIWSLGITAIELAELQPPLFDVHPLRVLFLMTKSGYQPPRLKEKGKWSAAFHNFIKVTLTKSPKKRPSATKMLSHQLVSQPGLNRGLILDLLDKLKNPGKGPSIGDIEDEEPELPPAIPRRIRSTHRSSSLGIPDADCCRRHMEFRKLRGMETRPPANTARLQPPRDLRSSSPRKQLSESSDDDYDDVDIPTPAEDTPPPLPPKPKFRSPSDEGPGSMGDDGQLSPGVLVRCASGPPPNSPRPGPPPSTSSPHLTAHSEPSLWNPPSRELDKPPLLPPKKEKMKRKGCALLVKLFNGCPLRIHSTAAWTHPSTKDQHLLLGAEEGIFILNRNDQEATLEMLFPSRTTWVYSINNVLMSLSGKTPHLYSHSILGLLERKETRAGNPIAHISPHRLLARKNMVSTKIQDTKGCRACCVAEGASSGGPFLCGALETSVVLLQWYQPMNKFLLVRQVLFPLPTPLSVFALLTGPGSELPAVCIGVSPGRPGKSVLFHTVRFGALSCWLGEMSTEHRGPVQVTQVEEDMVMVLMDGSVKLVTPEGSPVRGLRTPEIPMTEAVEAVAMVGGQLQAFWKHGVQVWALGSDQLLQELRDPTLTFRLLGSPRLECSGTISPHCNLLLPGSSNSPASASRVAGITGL", "assay": "HPK1 biochemical enzyme assay (microfluidic mobility shift assay)", "conditions": "1.5 nM HPK1, ATP 1 mM final, 30 min preincubation, 60 min at RT, Caliper EZ Reader; read-out: HPK1 1000UMATP caliper IC50", "experimental": "HPK1 biochemical enzyme assay: HPK1 enzyme inhibition was measured using a microfluidic mobility shift assay. […] Test compounds were titrated in ten point curves (top final assay concentration 3 μM), and preincubated with enzyme/substrate mix for 30 min prior to initiation of the reaction by addition of ATP (1 mM final concentration) and substrate (1 μM final concentration; Carna Biosciences) diluted in assay buffer supplemented by MgCl2 (final assay concentration of 5 mM). Following 60 min incubation at RT, the reaction was terminated by addition of 60 µl/well termination buffer (Carna Biosciences) and signal determination using aCaliper EZ Reader (Perkin Elmer, UK).\nThe compound numbers correspond to the compound numbers in Table 1.", "units": {"IC50": "nM"}, "values": [{"smiles": "Cn1ccc2c(-c3ncc(Nc4cccc(C5CNC5)n4)c4c3CNC4=O)ccnc21", "note": "[I-415, 7-((6-(azetidin-3-yl)pyridin-2-yl)amino)-4-(1-methyl-1H-pyrrolo[2.3-b]pyridin-4-yl)-2,3-dihydro-1H-pyrrolo[3,4-c]pyridin-1-one]", "IC50": "< 100"}, {"smiles": "COC[C@H]1CN(c2ccc(Nc3ccc(-c4cnc5c(F)c(C)ccn45)c4c3C(=O)NC4)nc2)CCO1", "note": "[I-580, (R)-4-(8-fluoro-7-methylimidazo [1,2-a]pyridin-3-yl)-7-((5-(2-(methoxymeth-yl)morpho-lino)pyridin-2-yl)amino)isoin-dolin-1-one]", "IC50": "< 100"}, {"smiles": "COC1CN(Cc2nc(Nc3ccc(-c4cnc5cc(F)ccn45)c4c3C(=O)NC4)ccc2[C@H]2CCOC2)C1", "note": "[I-548, (R)-4-(7-fluoroimidazo [1,2-a]pyridin-3-yl)-7-((6-((3-methoxyazet-idin-1-yl)methyl)-5-(tetrahydrofuran-3-yl)pyridin-2-yl)amiiio)isoin-dolin-1-one]", "IC50": "< 100"}, {"smiles": "CN1CC[C@]12CCN(c1cccc(Nc3cnc(-c4ccnc5c4ccn5C)c4c3C(=O)NC4)n1)C2", "note": "[I-615, (R)-7-((6-(1-methyl-1.6-diazaspiro[3,4]octan-6-yl)pyridin-2-yl)amino)-4-(1-methyl-1H-pyrrolo[2,3-b]pyridin-4-yl)-2,3-dihydro-1H-pyrrolo[3,4-c]pyridin-1-one]", "IC50": "100 to 1000"}, {"smiles": "CN1CCN(c2ccc(Nc3cnc(-c4cnc5ccccn45)c4c3C(=O)NC4)nc2)CC1", "note": "[I-56, 4-(Imidazo[1,2-a]pyridin-3-yl)-7-((5-(4-methylpiperazin-1-yl)pyridin-2-yl)amino)-2,3-dihydro-1H-pyrrolo[3,4-c]pyridin-1-one]", "IC50": "< 100"}, {"smiles": "CNC1CCN(c2ccc(Nc3ccc(-c4cnc5cccnn45)c4c3C(=O)NC4)nc2)CC1", "note": "[I-91, 4-imidazo[1,2-b]pyridazin-3-yl-7-[[5-[4-(methylamino)-1-piperidyl]-2-pyridyl]amino] isoindolin-1-one]", "IC50": "< 100"}, {"smiles": "CN(C)Cc1nc(Nc2ccc(-c3cnc4cc(F)ccn34)c3c2C(=O)NC3)ccc1N1CCOC[C@H](O)C1", "note": "(single isomer, unassigned) [I-819]", "IC50": "< 100"}, {"smiles": "O=C1NCc2c(-c3cnc4cc(F)ccn34)ccc(Nc3ccc([C@@H]4CCOC4)c(CN4CC[C@H](F)C4)n3)c21", "note": "(stereo in doubt) [I-736]", "IC50": "< 100"}, {"smiles": "CC(C)(O)[C@@H]1CCCN(c2ccc(Nc3ccc(-c4cnc5cc(F)ccn45)c4c3C(=O)NC4)nc2)C1", "note": "[I-202]", "IC50": "< 100"}, {"smiles": "O=C1NCc2c(-c3cnc4cc(F)ccn34)ccc(Nc3ccc(N4CCO[C@H](Cn5ccnc5)C4)cn3)c21", "note": "[I-512, 4-(7-fluoroimidazo [1,2-a]pyridin-3-yl)-7-[[5-[(2S)-2-(imidazol-1-ylmethyl)mor-pholin-4-yl]-2-pyridyl]amino] isoindolin-1-one]", "IC50": "< 100"}, {"smiles": "Cn1ccc2c(-c3ncc(Nc4ccc(N5CCO[C@@H](C(C)(C)O)C5)cn4)c4c3CNC4=O)ccnc21", "note": "[I-459]", "IC50": "< 100"}, {"smiles": "Cn1cnc2nccc(-c3ccc(Nc4ccc(N5CCNCC5)cn4)c4c3CNC4=O)c21", "note": "[I-114, 4-(1-methylimidazo [4,5-b]pyridin-7-yl)-7-[(5-piperazin-1-yl-2-pyridyl)amino] isoindolin-1-one]", "IC50": "> 1000"}, {"smiles": "CC(C)(O)[C@H]1CCCN(c2ccc(Nc3cnc(-c4cnc5ccccn45)c4c3C(=O)NC4)nc2)C1", "note": "[I-210, 7-[[5-[(3S)-3-(1-hydroxy-1-methyl-ethyl)-1-piperipyl]-2-pyridyl]-amino]-4-imidazo[1,2-a]pyridin-3-yl-2.3-dihydropyrrolo [3,4-c]pyridin-1-one]", "IC50": "< 100"}, {"smiles": "O=C1NCc2c(-c3cnc4c(F)cccn34)ncc(Nc3ccc(C4(O)CCOCC4)cn3)c21", "note": "[I-683, 4-(8-fluoroimidazo [1,2-a]pyridin-3-yl)-7-((5-(4-hydroxytetra-hydro-2H-pyran-4-yl)pyridin-2-yl)amino)-2,3-dihydro-1H-pyrrolo[3,4-c)pyridin-1-one]", "IC50": "< 100"}, {"smiles": "CN1CCC[C@H](c2cccc(Nc3cnc(-c4ccnc5c4ccn5C)c4c3C(=O)NC4)n2)C1", "note": "[I-419, (S)-4-(1-methyl-1H-pyrrolo[2,3-b]pyridin-4-yl)-7-((6-(1-methylpiperidin-3-yl)pyridin-2-yl)amino)-2.3-dihydro-1H-pyrrolo[3,4-c]pyridin-1-one]", "IC50": "> 1000"}, {"smiles": "CN1CC[C@@]12CCN(c1cccc(Nc3cnc(-c4ccnc5c4ccn5C)c4c3C(=O)NC4)n1)C2", "note": "[I-616, (S)-7-((6-(1-methyl-1,6-diazaspiro[3,4]octan-6-yl)pyridin-2-yl)amino)-4-(1-methyl-1H-pyrrolo[2,3-b)pyridin-4-yl)-2,3-dihydro-1H-pyrrolo[3,4-c]pyridin-1-one]", "IC50": "< 100"}, {"smiles": "O=C1NCc2c(-c3cnc4cnccn34)ccc(Nc3ccc(N4CCC[C@@H](O)C4)cn3)c21", "note": "[I-171]", "IC50": "< 100"}, {"smiles": "Cn1ccc2c(-c3ncc(Nc4cccc(N5CCNCC5)n4)c4c3CNC4=O)ccnc21", "note": "[I-232, 4-(1-methylpyrrolo [2,3-b]pyridin-4-yl)-7-[(6-piperazin-1-yl-2-pyridyl)amino]-2,3-dihydropyrrolo [3,4-c]pyridin-1-one]", "IC50": "< 100"}, {"smiles": "CN(C)C(C)(C)C1CN(c2ccc(Nc3ccc(-c4cnc5cc(F)ccn45)c4c3C(=O)NC4)nc2)CCO1", "note": "(stereo in doubt) [I-590, (R)-7-((5-(2-(2-(dimethylami-no)propan-2-yl)morpho-lino)pyridin-2-yl)amino)-4-(7-fluoroimidazo [1,2-a]pyridin-3-yl)isoindolin-1-one]", "IC50": "< 100"}, {"smiles": "O=C1NCc2c(-c3cnc4cc(Cl)ccn34)ccc(Nc3ccc(N4CCOCC(O)C4)cn3)c21", "note": "(stereo in doubt) [I-596, (R)-4-(7-chloroimidazo [1,2-a]pyridin-3-yl)-7-((5-(6-hydroxy-1.4-oxazepan-4-yl)pyridin-2-yl)amino)isoin-dolin-1-one]", "IC50": "< 100"}, {"smiles": "CN1CCC(C)(c2ccc(Nc3ccc(-c4ccnc5c4ccn5C)c4c3C(=O)NC4)nc2)CC1", "note": "[I-275, 7-((5-(1,4-dimethyl-piperidin-4-yl)pyridin-2-yl)amino)-4-(1-methyl-1H-pyrrolo[2,3-b]pyridin-4-yl)isoindolin-1-one]", "IC50": "< 100"}, {"smiles": "CN1CCN(c2ccc(Nc3ccc(-c4cccc5[nH]ccc45)c4c3C(=O)NC4)nc2)CC1", "note": "[I-41, 4-(1H-indol-4-yl)-7-[[5-(4-methylpiperazin-1-yl)-2-pyridyl]amino] isoindolin-1-one]", "IC50": "< 100"}, {"smiles": "CN(C)CCN(C)c1cccc(Nc2cnc(-c3ccnc4c3ccn4C)c3c2C(=O)NC3)n1", "note": "[I-246, 7-[[6-[2-(dimethylami-no)ethyl-methyl-amino]-2-pyridyl]-amino]-4-(1-methylpyrrolo [2,3-b]pyridin-4-yl)-2,3-dihydropyrrolo [3,4-c]pyridin-1-one]", "IC50": "< 100"}, {"smiles": "CN(C)CCOC1(c2ccc(Nc3ccc(-c4cnc5cc(F)ccn45)c4c3C(=O)NC4)nc2)CCOCC1", "note": "[I-669, 7-((5-(4-(2-(dimethylami-no)ethoxy)tetra-hydro-2H-pyran-4-yl)pyridin-2-yl)amino)-4-(7-fluoroimidazo [1,2-a]pyridin-3-yl)isoindolin-1-one]", "IC50": "< 100"}, {"smiles": "CN1CCN(c2ccc(Nc3ccc(-c4cnc5c(C#N)cccn45)c4c3C(=O)NC4)nc2)CC1", "note": "[I-74, 3-[7-[[5-(4-methylpiperazin-1-yl)-2-pyridyl]amino]-1-oxo-isoindolin-4-yl]imidazo[1,2-a]pyridine-8-carbonitrile]", "IC50": "< 100"}, {"smiles": "CNCc1nc(Nc2ccc(-c3cnc4cc(F)ccn34)c3c2C(=O)NC3)ccc1C1CCOC1", "note": "(stereo in doubt) [I-722, (S)-4-(7-fluoroimidazo [1,2-a]pyridin-3-yl)-7-((6-((methyl-amino)methyl)-5-(tetrahydrofuran-3-yl)pyridin-2-yl)amino)isoin-dolin-1-one]", "IC50": "< 100"}, {"smiles": "COc1cc(Nc2ccc(-c3cnc4cc(F)ccn34)c3c2C(=O)NC3)ncc1N1CCC(O)CC1", "note": "[I-372, 4-(7-fluoroimidazo [1,2-a]pyridin-3-yl)-7-((5-(4-hydroxypipendin-1-yl)-4-methoxypyridin-2-yl)amino)isoin-dolin-1-one]", "IC50": "< 100"}, {"smiles": "C[C@H](c1ccc(Nc2ccc(-c3cnc4cc(F)ccn34)c3c2C(=O)NC3)nc1)N1CCC(O)CC1", "note": "[I-527, (R)-4-(7-fluoroimidazo [1,2-a]pyridin-3-yl)-7-((5-(1-(4-hydroxypiperidin-1-yl)ethyl)pyridin-2-yl)amino)isoin-dolin-1-one]", "IC50": "< 100"}, {"smiles": "O=C1NCc2c(-c3cnc4cc(F)ccn34)ccc(Nc3ccc([C@@H]4CCOC4)c(CN4CCCC4)n3)c21", "note": "[I-516, (S)-4-(7-fluoroimidazo [1,2-a]pyridin-3-yl)-7-((6-(pyrrolidin-1-ylmethyl)-5-(tetrahydrofuran-3-yl)pyridin-2-yl)amino)isoin-dolin-1-one]", "IC50": "< 100"}, {"smiles": "Cc1cnc2[nH]cc(-c3ccc(Nc4ccc(N5CCN(C)CC5)cn4)c4c3CNC4=O)c2c1", "note": "[I-30, 7-[[5-(4-methylpiperazin-1-yl)-2-pyridyl]amino]-4-(5-methyl-1H-pyrrolo[2,3-b]pyridin-3-yl)-isoindolin-1-one]", "IC50": "100 to 1000"}, {"smiles": "O=C1NCc2c(-c3cnc4cc(F)ccn34)ccc(Nc3ccc(N4CCOCC4)cn3)c21", "note": "[I-159, 4-(7-fluoroimidazo [1,2-a]pyridin-3-yl)-7-[(5-morpholino-2-pyridyl)amino] isoindolin-1-one]", "IC50": "< 100"}, {"smiles": "C[C@H]1CN([C@@H](C)c2ccc(Nc3ccc(-c4cnc5cc(F)ccn45)c4c3C(=O)NC4)nc2)CCO1", "note": "[I-522, 4-(7-fluoroimidazo [1,2-a]pyridin-3-yl)-7-((5-((S)-1-((S)-2-methylmorpho-lino)ethyl)pyri-din-2-yl)amino) isoin-dolin-1-one]", "IC50": "< 100"}, {"smiles": "Cc1ccn2c(-c3ccc(Nc4ccc(N5CCC[C@H](C(C)(C)O)C5)cn4)c4c3CNC4=O)cnc2n1", "note": "[I-225, 7-[[5-[(3S)-3-(1-hydroxy-1-methyl-ethyl)-1-piperidyl]-2-pyridyl]-amino]-4-(7-methylimidazo [1,2-a]pyrimidin-3-yl)isoindolin-1-one]", "IC50": "< 100"}]}]}
